Structures are written as SMILES.

The assay deals with T1, Steroid 17-alpha-hydroxylase/17,20 lyase (Homo sapiens, UniProt P05093).
T1 sequence (P05093 whole entry): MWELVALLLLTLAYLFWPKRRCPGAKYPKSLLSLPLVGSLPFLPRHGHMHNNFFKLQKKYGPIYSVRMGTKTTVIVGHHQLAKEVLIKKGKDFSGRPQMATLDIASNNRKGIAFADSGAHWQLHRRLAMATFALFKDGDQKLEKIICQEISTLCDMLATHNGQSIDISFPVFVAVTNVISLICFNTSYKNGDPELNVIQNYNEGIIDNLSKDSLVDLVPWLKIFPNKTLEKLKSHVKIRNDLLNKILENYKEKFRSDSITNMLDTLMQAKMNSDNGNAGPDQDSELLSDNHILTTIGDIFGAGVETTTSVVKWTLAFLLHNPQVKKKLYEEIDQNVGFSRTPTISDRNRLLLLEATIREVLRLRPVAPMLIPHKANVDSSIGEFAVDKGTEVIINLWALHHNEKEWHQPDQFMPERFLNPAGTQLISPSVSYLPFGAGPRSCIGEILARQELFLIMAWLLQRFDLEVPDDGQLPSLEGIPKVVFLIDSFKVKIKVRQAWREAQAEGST
Put plainly: Inhibition of human progesterone 17-alpha-hydroxylase.
For the compound `C[C@]12CC[C@H](O)C[C@@H]1CC[C@@H]1[C@@H]2CC[C@@]2(C)[C@H]1C[C@H]1O[C@]12c1cccnc1`, the IC50 (commonly the concentration at which inhibition is half-maximal) stood at 260 nM.

`C[C@]12CC[C@H](O)C[C@@H]1CC[C@@H]1[C@@H]2CC[C@]2(C)[C@@H](c3cccnc3)CC[C@@H]12` returned an IC50 of 74 nM. Against the preceding compound, the IC50 is about 3.5-fold lower.

`C[C@]12CC[C@H](O)C[C@@H]1CC[C@@H]1[C@@H]2CC[C@]2(C)C(c3cccnc3)CC[C@@H]12` (stereo not given in full) displayed an IC50 of 5 nM.

The compound `C[C@]12CCC(=O)C=C1CCC1C2CC[C@]2(C)C(c3cccnc3)=CCC12` (stereo not given in full) registered an IC50 of 3 nM.

For `C[C@]12CCC3C(CC=C4C[C@@H](O)CC[C@@]43C)C1CCC2c1ccncc1` (single isomer, unassigned), half-maximal inhibition (IC50) was put at 27 nM. This IC50 lies about 9-fold higher than the previous one.

The record behind these values is ChEMBL document CHEMBL1131444, “The 16,17-double bond is needed for irreversible inhibition of human cytochrome p45017alpha by abiraterone (17-(3-pyridyl)androsta-5, 16-dien-3beta-ol) and related steroidal inhibitors” (J Med Chem, 1998).
